Data set [1] can be described thus: aqueous solubility of cilostazol polymorphic forms. Format: physicochemical.
The nature of data set [2]: bioavailability of cilostazol Form A. Format: in vivo. The following applies: Form A as prepared by the procedures of the '479 patent.
Data set [3] can be described thus: stability of the polymorphic form. Format: physicochemical. The following applies: statement in summary, no conditions given.

The structures appear in SMILES notation.

As to `O=C1CCc2cc(OCCCCc3nnnn3C3CCCCC3)ccc2N1` [Form A, 6-[4-(1-cyclohexyl-1H-tetrazol-5-yl)butoxy]-3,4-dihydro-2(1H)-quinolinone], the aqueous solubility result in data set [1] (Form A as prepared by the procedures of the '479 patent) is “low aqueous solubility”. In data set [2], the bioavailability result is reported as “low bioavailability”.

As for `O=C1CCc2cc(OCCCCc3nnnn3C3CCCCC3)ccc2N1` [Form B, 6-[4-(1-cyclohexyl-1H-tetrazol-5-yl)butoxy]-3,4-dihydro-2(1H)-quinolinone], the “solubility relative to Form A” value in data set [1] (inferred from lower DSC melting point (FIG. 8), no solubility measurement) is given as “more soluble than Form A”. Also, in data set [3], the “stability of the form” value is “stable”.

(Values after patent US20030045548A1, “Polymorphic forms of 6-[4-(1-cyclohexyl-1H-tetrazol-5-YL)butoxy]-3,4-dihydro-2(1H)-quinolinone” (priority 2001, published 2003).)
